This note sets out measurements from BindingDB's records for patent US20250282794 (Curadev Pharma, 2025).

Chain of Mitogen-activated protein kinase kinase kinase kinase 1 (Q92918 whole entry): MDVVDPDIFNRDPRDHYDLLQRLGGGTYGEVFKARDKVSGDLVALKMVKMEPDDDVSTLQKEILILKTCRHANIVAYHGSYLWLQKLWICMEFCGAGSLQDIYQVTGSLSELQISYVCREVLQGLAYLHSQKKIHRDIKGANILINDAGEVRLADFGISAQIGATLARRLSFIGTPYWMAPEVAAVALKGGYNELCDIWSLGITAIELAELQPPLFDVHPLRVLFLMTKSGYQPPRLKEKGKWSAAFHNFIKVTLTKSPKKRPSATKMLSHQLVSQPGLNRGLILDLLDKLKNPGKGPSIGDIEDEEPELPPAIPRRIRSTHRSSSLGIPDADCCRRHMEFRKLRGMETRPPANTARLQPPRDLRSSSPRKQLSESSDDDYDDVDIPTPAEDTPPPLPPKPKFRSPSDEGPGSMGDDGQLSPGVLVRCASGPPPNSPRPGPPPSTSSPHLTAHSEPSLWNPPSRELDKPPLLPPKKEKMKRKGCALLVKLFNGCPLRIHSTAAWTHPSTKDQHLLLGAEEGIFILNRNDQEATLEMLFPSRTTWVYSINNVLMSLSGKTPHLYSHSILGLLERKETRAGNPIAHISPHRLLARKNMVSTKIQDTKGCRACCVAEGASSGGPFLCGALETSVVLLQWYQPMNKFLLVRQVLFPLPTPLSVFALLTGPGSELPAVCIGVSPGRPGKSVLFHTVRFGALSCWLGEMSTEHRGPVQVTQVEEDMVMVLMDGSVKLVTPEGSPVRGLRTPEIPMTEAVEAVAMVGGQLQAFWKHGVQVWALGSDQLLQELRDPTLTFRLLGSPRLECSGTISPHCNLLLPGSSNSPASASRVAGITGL

The experiment has as its target Mitogen-activated protein kinase kinase kinase kinase 1 (Homo sapiens, UniProt Q92918). Nature of the experiment: HPK-1 biochemical enzyme assay. The procedure: Compound inhibitory potency was measured in an HPK-1 kinase inhibition assay. Briefly, recombinant full length HPK-1 enzyme (6.8 nM) was incubated with 10 μM ATP and 12.5 μM swine myelin basic protein (MBP) for 30 mins. at 25° C. in the presence of various concentrations of test compound or vehicle in 40 mM Tris.Cl pH7.4 buffer containing 20 mM MgCl2, 50 μM DTT and 0.1 mg/mL BSA. Reactions were quenched and reaction mixtures were then analyzed by an ADP-Glo kit which measures the formed ADP. The percent inhibition was calculated from the substrate conversion considering no enzyme control reactions for 100% inhibition and vehicle only reactions for 0% inhibition. The compounds were dissolved in DMSO and evaluated at 10 concentrations to determine an IC50 value.
By IC50 is commonly meant the concentration that gives 50% inhibition. Lower therefore signals greater potency. The compound `COCCN1CCN(c2ccc(NC(=O)c3c(Nc4cnc5c(c4C)NCCO5)cc[nH]c3=O)cc2F)CC1` [US20250282794, Example 194] returned a 50% inhibitory concentration (IC50) of under 10 nM.

On to `COCCN1CCN(c2ccc(NC(=O)c3c(Nc4cnc5c(c4C)NCCO5)cc[nH]c3=O)cc2C)CC1` [US20250282794, Example 275], for which the concentration for half-maximal inhibition (IC50) was under 10 nM.

Compound `COCCCN1CCN(c2ccc(NC(=O)c3c(Nc4cnc5c(c4C)NCCO5)cc[nH]c3=O)cc2)CC1` [US20250282794, Example 277] had an IC50 of under 10 nM.

`Cc1c(Nc2cc[nH]c(=O)c2C(=O)Nc2ccc(N3CCC(O)CC3)cc2)cnc2c1NCCO2` [US20250282794, Example 278]: the IC50 was under 10 nM.

`Cc1c(Nc2cc[nH]c(=O)c2C(=O)Nc2ccc(C3CCN(C(C)C)CC3)cc2)cnc2c1NCCO2` [US20250282794, Example 279]: the concentration for half-maximal inhibition (IC50) is under 10 nM.

In turn, `Cc1c(Nc2cc[nH]c(=O)c2C(=O)Nc2ccc(N3CCN(c4ccccn4)CC3)cc2)cnc2c1NCCO2` [US20250282794, Example 289] had a 50% inhibitory concentration (IC50) of under 10 nM.

In turn, `Cc1c(Nc2cc[nH]c(=O)c2C(=O)Nc2ccc(N3CCN(C4CCCC4)CC3)c(N)c2)cnc2c1NCCO2` [US20250282794, Example 311] registered an IC50 of under 10 nM.

Take `Cc1c(Nc2cc[nH]c(=O)c2C(=O)Nc2ccc(N3CCN(C(=O)C4CCC4)CC3)cc2)cnc2c1NCCO2` [US20250282794, Example 314]: the half-maximal inhibitory concentration (IC50) was under 10 nM.

`Cc1c(Nc2cc[nH]c(=O)c2C(=O)Nc2ccc(-c3ccccc3)cc2)cnc2c1NCCO2` [US20250282794, Example 331] displayed an IC50 of 10 to 100 nM.

Consider `Cc1c(Nc2cc[nH]c(=O)c2C(=O)Nc2ccc(N3CCC(O)(CN(C)C)CC3)c(F)c2)cnc2c1NCC(C)O2` (stereo unspecified) [US20250282794, Example 388], for which the IC50 was under 10 nM.

Take `Cc1c(Nc2cc[nH]c(=O)c2C(=O)Nc2ccc(N3CCN(C)CC3)c(CN)c2)cnc2c1NCCO2` [US20250282794, Example 393]: the half-maximal inhibitory concentration (IC50) was under 10 nM.
